Here are results for 34 compounds from US8198456B2, “Dihydropyridine derivatives as useful as protein kinase inhibitors” (Bayer Intellectual Property GmbH, priority 2006, dated 2012).

Molecules are shown by their SMILES. pIC50: −log10 of the molar value. Structures can show the parent of a compound that is named as a salt.

This assay deals with T1, recombinant human c-MET kinase enzyme domain (Homo sapiens, UniProt P08581).
T1 construct: Recombinant c-Met kinase domain (amino acids 960-1390); His (N); made in house; host or cells: baculovirus expression system (insect cells; SF21 is named only for the alternative format)
T1 sequence (P08581 960-1390): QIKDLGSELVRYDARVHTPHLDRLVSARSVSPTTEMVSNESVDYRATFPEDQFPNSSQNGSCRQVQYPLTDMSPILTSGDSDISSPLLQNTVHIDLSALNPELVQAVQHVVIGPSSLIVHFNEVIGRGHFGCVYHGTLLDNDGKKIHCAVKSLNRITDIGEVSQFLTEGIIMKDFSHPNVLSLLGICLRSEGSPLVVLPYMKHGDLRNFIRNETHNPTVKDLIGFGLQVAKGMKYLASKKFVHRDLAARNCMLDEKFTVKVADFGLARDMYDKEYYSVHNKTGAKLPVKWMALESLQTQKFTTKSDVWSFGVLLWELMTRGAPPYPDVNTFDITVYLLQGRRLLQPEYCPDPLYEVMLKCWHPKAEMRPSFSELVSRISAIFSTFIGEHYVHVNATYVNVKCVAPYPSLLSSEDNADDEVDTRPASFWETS
Kind of assay: c-MET receptor tyrosine kinase Homogeneous Time Resolved Fluorescence assay (HTRF). To be noted: Biological Example 1 and/or Biological Example 2. Type of assay: biochemical. Summed up: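 His-tagged c-Met kinase domain (aa 960-1390, baculovirus) phosphorylated biotinylated poly-Glu-Tyr (37 nM) with 20 μM ATP in HEPES pH 7.4, Mg/Mn, DTT, 1% DMSO, 20 min at ambient temperature, EDTA-stopped. HTRF read (PT66-Eu/streptavidin-XL665, 665/620 nm ratio) after 4 h; IC50 from eight 1:3.16 dilutions.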
On the technique in general: In TR-FRET formats the signal depends on donor and acceptor labels being close together.
`CC1=C(C#N)C(c2ccc3c(c2)c(N)nn3C(=O)OC(C)(C)C)C(C#N)=C(C)N1` [compound 92, 3-amino-5-(3,5-dicyano-1,4-dihydro-2,6-dimethyl-4-pyridinyl)-1H-indazole-1-carboxylic acid tert-butyl ester]: the negative logarithm of the IC50 (pIC50) was 6.30 to 7.00.

`COC(=O)c1cccc(C2C(C#N)=C(C)NC(C3CCCN(C(C)=O)C3)=C2C#N)c1` (stereo not shown) [compound 229, 3-[2-(1-acetyl-3-piperidinyl)-3,5-dicyano-1,4-dihydro-6-methyl-4-pyridinyl]-benzoic acid, methyl ester]: the pIC50 was 6.30 to 7.00.

As to `CC1=C(C#N)C(c2ccc3[nH]ncc3c2)C(C#N)=C(C)N1CCO` [compound 292, 1,4-dihydro-1-(2-hydroxyethyl)-4-(1H-indazol-5-yl)-2,6-dimethyl-3,5-pyridinedicarbonitrile], the pIC50 is more than 7.00.

As to `COC(c1cccnc1)n1nc(N)c2cc(C3C(C#N)=C(C)NC(C)=C3C#N)ccc21` (stereo not shown) [compound 110, 4-[3-amino-1-(methoxy-3-pyridinylmethyl)-1H-indazol-5-yl]-1,4-dihydro-2,6-dimethyl-3,5-pyridinedicarbonitrile], the pIC50 is 6.30 to 7.00.

For `CC1=C(C#N)C(c2ccc3[nH]ncc3c2)C(C#N)=C(c2ccc(N3CCOCC3)c(F)c2)N1` (stereo not shown) [compound 272, 2-[3-fluoro-4-(4-morpholinyl)phenyl]-1,4-dihydro-4-(1H-indazol-5-yl)-6-methyl-3,5-pyridinedicarbonitrile], the negative-log IC50 (pIC50) was more than 7.00.

On to `CC1=C(C#N)C(c2ccc3[nH]ncc3c2)C(C#N)=C2CCCCN12` (stereo not shown) [compound 304, 6,7,8,9-tetrahydro-2-(1H-indazol-5-yl)-4-methyl-2H-quinolizine-1,3-dicarbonitrile], for which the pIC50 is more than 7.00.

As for `CON(C)C(=O)c1n[nH]c2ccc(C3C(C#N)=C(C)NC(C)=C3C#N)cc12` [compound 143, 5-(3,5-dicyano-1,4-dihydro-2,6-dimethyl-4-pyridinyl)-N-methoxy-N-methyl-1H-indazole-3-carboxamide], the negative-log IC50 (pIC50) is more than 7.00.

On to `CC1=C(C#N)C(c2ccc3[nH]ncc3c2)C(C#N)=C(C2CCCN(C(=O)OCc3ccccc3)C2)N1` (stereo not shown) [compound 251, 3-[3,5-dicyano-1,4-dihydro-4-(1H-indazol-5-yl)-6-methyl-2-pyridinyl]-1-piperidinecarboxylic acid phenylmethyl ester], for which the negative-log IC50 (pIC50) is 5.60 to 6.30.

As to `CC1=C(C#N)C(c2ccc3[nH]ncc3c2)C(C#N)=C(C)N1C` [compound 289, 1,4-dihydro-4-(1H-indazol-5-yl)-1,2,6-trimethyl-3,5-pyridinedicarbonitrile], the negative logarithm of the IC50 (pIC50) is more than 7.00.

With `CC1=C(C#N)C(c2cccc(C(=O)NCCCn3ccnc3)c2)C(C#N)=C(C)N1` [compound 32, 3-(3,5-dicyano-1,4-dihydro-2,6-dimethyl-4-pyridinyl)-N-[3-(1H-imidazol-1-yl)propyl]-benzamide], the negative-log IC50 (pIC50) is 6.30 to 7.00.

In the case of `CC(=O)c1n[nH]c2ccc(C3C(C#N)=C(C)NC(C)=C3C#N)cc12` [compound 158, 4-(3-acetyl-1H-indazol-5-yl)-1,4-dihydro-2,6-dimethyl-3,5-pyridinedicarbonitrile], the pIC50 was more than 7.00.

Consider `CC1=C(C#N)C(c2ccc3[nH]ncc3c2)C(C#N)=C(c2ccc(N3CCOCC3)nc2)N1` (stereo not shown) [compound 271, 1,4-dihydro-4-(1H-indazol-5-yl)-6-methyl-6′-(4-morpholinyl)-[2,3′-bipyridine]-3,5-dicarbonitrile], for which the negative-log IC50 (pIC50) is more than 7.00.

Regarding `COC(=O)c1cccc(C2C(C#N)=C(C)NC(c3cccc(N)c3)=C2C#N)c1` (stereo not shown) [compound 235, 3-[2-(3-aminophenyl)-3,5-dicyano-1,4-dihydro-6-methyl-4-pyridinyl]-benzoic acid, methyl ester], the pIC50 is 6.30 to 7.00.

Regarding `CC1=C(C#N)C(c2ccc3[nH]nc(-c4ccccn4)c3c2)C(C#N)=C(C)N1` [compound 88, 1,4-dihydro-2,6-dimethyl-4-[3-(2-pyridinyl)-1H-indazol-5-yl]-3,5-pyridinedicarbonitrile], the pIC50 was more than 7.00.

For `CO/N=C/c1n[nH]c2ccc(C3C(C#N)=C(C)NC(C)=C3C#N)cc12` [compound 159, 1,4-dihydro-4-[3-[(E)-(methoxyimino)methyl]-1H-indazol-5-yl]-2,6-dimethyl-3,5-pyridinedicarbonitrile], the pIC50 is more than 7.00.

With `CC(=O)Nc1n[nH]c2ccc(C3C(C#N)=C(C)NC(C)=C3C#N)cc12` [compound 89, N-[5-(3,5-dicyano-1,4-dihydro-2,6-dimethyl-4-pyridinyl)-1H-indazol-3-yl]-acetamide], the pIC50 is more than 7.00.

Consider `CC1=C(C#N)C(c2cccc(C(=O)NCCCn3ccnc3)n2)C(C#N)=C(C)N1` [compound 191, 3′,5′-dicyano-1′,4′-dihydro-N-[3-(1H-imidazol-1-yl)propyl]-2′,6′-dimethyl-[2,4′-bipyridine]-6-carboxamide], for which the pIC50 is 6.30 to 7.00.

Consider `CC1=C(C#N)C(c2cccc(C(=O)Nc3cccnc3)c2)C(C#N)=C(C)N1` [compound 21, 3-(3,5-dicyano-1,4-dihydro-2,6-dimethyl-4-pyridinyl)-N-3-pyridinyl-benzamide], for which the pIC50 was 6.30 to 7.00.

On to `COC(=O)c1n[nH]c2ccc(C3C(C#N)=C(C)NC(C)=C3C#N)cc12` [compound 85, 5-(3,5-dicyano-1,4-dihydro-2,6-dimethyl-4-pyridinyl)-1H-indazole-3-carboxylic acid methyl ester], for which the negative-log IC50 (pIC50) was 5.60 to 6.30.

For `CC1=C(C#N)C(c2cccc(C(=O)Nc3ccccn3)n2)C(C#N)=C(C)N1` [compound 192, 3′,5′-dicyano-1′,4′-dihydro-2′,6′-dimethyl-N-2-pyridinyl-[2,4′-bipyridine]-6-carboxamide], the pIC50 was more than 7.00.

`COC(=O)c1cccc(C2C(C#N)=C(C)NC(C3CCCN(C(N)=O)C3)=C2C#N)c1` (stereo not shown) [compound 230, 3-[2-[1-(aminocarbonyl)-3-piperidinyl]-3,5-dicyano-1,4-dihydro-6-methyl-4-pyridinyl]-benzoic acid, methyl ester]: the pIC50 was 6.30 to 7.00.

Take `CC1=C(C#N)C(c2ccc3[nH]nc(NCCN)c3c2)C(C#N)=C(C)N1` [compound 308, 4-[3-[(2-aminoethyl)amino]-1H-indazol-5-yl]-1,4-dihydro-2,6-dimethyl-3,5-pyridinedicarbonitrile]: the negative logarithm of the IC50 (pIC50) was more than 7.00.

Regarding `COc1cccc(-c2n[nH]c3ccc(C4C(C#N)=C(C)NC(C)=C4C#N)cc23)c1` [compound 84, 1,4-dihydro-4-[3-(3-methoxyphenyl)-1H-indazol-5-yl]-2,6-dimethyl-3,5-pyridinedicarbonitrile], the negative logarithm of the IC50 (pIC50) is 6.30 to 7.00.

With `CC1=C(C#N)C(c2ccc3[nH]nc(NCc4ccc(C(=O)O)cc4)c3c2)C(C#N)=C(C)N1` [compound 136, 4-[[[5-(3,5-dicyano-1,4-dihydro-2,6-dimethyl-4-pyridinyl)-1H-indazol-3-yl]-amino]methyl]-benzoic acid], the negative logarithm of the IC50 (pIC50) was more than 7.00.

`CCOCCCNC(=O)c1cccc(C2C(C#N)=C(C)NC(C)=C2C#N)c1` [compound 45, 3-(3,5-dicyano-1,4-dihydro-2,6-dimethyl-4-pyridinyl)-N-(3-ethoxypropyl)-benzamide]: the pIC50 is 5.60 to 6.30.

Turning to `CC1=C(C#N)C(c2ccc3[nH]nc(CN4CCN(c5ccncc5)CC4)c3c2)C(C#N)=C(C)N1` [compound 130, 1,4-dihydro-2,6-dimethyl-4-[3-[[4-(4-pyridinyl)-1-piperazinyl]methyl]-1H-indazol-5-yl]-3,5-pyridinedicarbonitrile], the pIC50 was 5.60 to 6.30.

Turning to `CNC(=O)c1cccc(C2C(C#N)=C(C)NC(C)=C2C#N)c1` [compound 22, 3-(3,5-dicyano-1,4-dihydro-2,6-dimethyl-4-pyridinyl)-N-methyl-benzamide], the pIC50 is 6.30 to 7.00.

As to `CC1=C(C#N)C(c2cccc(NC(=O)c3ncc[nH]3)c2)C(C#N)=C(C)N1` [compound 65, N-[3-(3,5-dicyano-1,4-dihydro-2,6-dimethyl-4-pyridinyl)phenyl]-1H-imidazole-2-carboxamide], the negative logarithm of the IC50 (pIC50) was 6.30 to 7.00.

For the compound `CC1=C(C#N)C(c2cccc(C(=O)Nc3cccnc3)n2)C(C#N)=C(C)N1` [compound 190, 3′,5′-dicyano-1′,4′-dihydro-2′,6′-dimethyl-N-3-pyridinyl-[2,4′-bipyridine]-6-carboxamide], the pIC50 was 6.30 to 7.00.

`CC1=C(C#N)C(c2ccc3[nH]nc(C(=O)NCCCN(C)C)c3c2)C(C#N)=C(C)N1` [106.1, 5-(3,5-dicyano-2,6-dimethyl-1,4-dihydro-pyridin-4-yl)-1H-indazole-3-carboxylic acid (3-dimethylamino-propyl)-amide, TFA salt]: the negative logarithm of the IC50 (pIC50) is more than 7.00.

Regarding `CC1=C(C#N)C(c2ccc3[nH]ncc3c2)C(C#N)=C(CCN)N1` (stereo not shown) [compound 255, 2-(2-aminoethyl)-1,4-dihydro-4-(1H-indazol-5-yl)-6-methyl-3,5-pyridinedicarbonitrile], the pIC50 is more than 7.00.

For the compound `COC(=O)c1cccc(C2C(C#N)=C(C)NC(c3ccc(O)cc3)=C2C#N)c1` (stereo not shown) [compound 234, 3-[3,5-dicyano-1,4-dihydro-2-(4-hydroxyphenyl)-6-methyl-4-pyridinyl]-benzoic acid, methyl ester], the pIC50 is 6.30 to 7.00.

Take `CNC(=O)c1cccc(C2C(C#N)=C(C)NC(C)=C2C#N)c1` [compound 12, 3-(3,5-dicyano-2,6-dimethyl-1,4-dihydro-pyridin-4-yl)-N-methyl-benzamide, TFA salt]: the negative-log IC50 (pIC50) is 5.60 to 6.30.

Consider `CC1=C(C#N)C(c2cccc(C(=O)Nc3cccc(C)n3)c2)C(C#N)=C(C)N1` [compound 62, 3-(3,5-dicyano-1,4-dihydro-2,6-dimethyl-4-pyridinyl)-N-(6-methyl-2-pyridinyl)-benzamide], for which the pIC50 is 5.60 to 6.30.

Broadly, the pIC50 is the negative decadic logarithm of the IC50, by convention in mol/L.
